Experimental findings from patent publication US20120122860A1, “SOLID FORMS OF SULFONAMIDES AND AMINO ACIDS” (Plexxikon, Inc., priority 2009, published 2012) are described below.

Data set [1] can be described thus: Dog PK study of solid forms and formulations. Format: in vivo, Beagle dogs. The conditions noted are these: for AUC∞/dose / Cmax/dose: 10 kg weight assumed. On the procedure: Pharmacokinetic properties of various compositions prepared from the complexes may be assessed in male Sprague Dawley rats or male Beagle dogs, and compared to the properties of the free base compound. Rats are dosed daily with compound either by IV injections via surgically implanted jugular catheters or by oral gavage (PO). Each compound is prepared as a 20 mg/mL stock solution in dimethyl sulfoxide, which is further diluted to provide the dosing stock at the desired concentration for the IV or PO formulations. For IV dosing, the dosing stock is diluted into a 1:1:8 mixture of Solutol®:ethanol:water. For PO dosing, the dosing stock is diluted into 1% methylcellulose. In a cassette format, 5 compounds are diluted to 0.5 mg/mL each for IV dosing and 0.4 mg/mL each for PO dosing and dosed at 1 mg/kg (2 mL/kg) or 2 mg/kg (5 mL/kg), respectively. For IV dosed animals, tail vein blood samples are collected with lithium heparin anticoagulant at 5, 15, 30, and 60 minutes and 4, 8, and 24 hours post dosing each day. For PO dosed animals, tail vein blood samples are collected with lithium heparin anticoagulant at 30 minutes, 1, 2, 4, 8 and 24 hours post dosing each day. Dogs are dosed daily by oral capsules in a suitable formulation at 50 mg/mL. Cephalic vein blood samples are collected with lithium heparin anticoagulant at 30 minutes, 1, 2, 4, 8 and 24 hours post dosing each day. All samples are processed to plasma and frozen for later analysis of each compound by LC/MS/MS. Plasma levels as a function of time are plotted to assess the AUC (ng*hr/mL).
The arginine complex of N-[3-(5-chloro-1H-pyrrolo[2,3-b]pyridine-3-carbonyl)-2,4-difluoro-phenyl]-4-trifluoromethyl-benzenesulfonamide P-1021 was analyzed in a number of dog PK studies following the above or similar protocols. These were done primarily at Bridge Laboratories, Beijing, China, with one study done at Seventh Wave Laboratories LLC, Chesterfield, Mo. Plasma samples were analyzed to determine the plasma concentration (PPD Development, Madison, Wis.) at each time point from which the Cmax and AUC∞ were determined. In some instances, the materials are combined in the solvents indicated, and the solvent is removed by evaporation, or by spray drying where indicated. In these tables, unless indicated otherwise, the dose is mg/dog, and the Cmax/dose ((ng/mL)/(mg/kg)) and the AUC∞/dose ((ng*hr/mL)/(mg/kg)) are calculated assuming a 10 kg weight for the dogs.
This study was done at Seventh Wave, containers were provided with 13.259 g, 39.776 g or 66.301 g of this formulation and suspended in 360 mL of 1.5% Polysorbate 20 vehicle and dosed by oral gavage.
N-[3-(5-chloro-1H-pyrrolo[2,3-b]pyridine-3-carbonyl)-2,4-difluoro-phenyl]-4-trifluoromethyl-benzenesulfonamide P-1021 was analyzed in a dog PK study wherein the arginine complex of N-[3-(5-cyano-1H-pyrrolo[2,3-b]pyridine-3-carbonyl)-2,4-difluoro-phenyl]-4-trifluoromethyl-benzenesulfonamide P-1092 was also assessed.

Another data set has as its target Fms (Homo sapiens, UniProt P07333). The experiment in a line: Kinase activity assay, Fms.
Another data set addresses B-Raf V600E (Homo sapiens, UniProt P15056, V600E). The experiment in a line: Kinase activity assay, B-Raf V600E. The conditions noted are these: read-out: activity toward kinase B-Raf V600E, IC50. Type of data set: biochemical.
The target of the next data set is Kdr (Homo sapiens, UniProt P35968). The experiment in a line: Kinase activity assay, Kdr.
Another data set deals with Src (Homo sapiens, UniProt P12931). The experiment in a line: Kinase activity assay, Src.
In a further data set the target is B-Raf (Homo sapiens, UniProt P15056). In words: Kinase activity assay, B-Raf. Type of data set: biochemical. The conditions noted are these: read-out: activity toward kinase B-Raf, IC50.
The target of a further data set is C-Raf (Homo sapiens, UniProt P04049). The experiment in a line: Kinase activity assay, C-Raf.
The next data set has as its target T1, TEC (Homo sapiens, UniProt P42680).
T1 sequence (P42680 1-631): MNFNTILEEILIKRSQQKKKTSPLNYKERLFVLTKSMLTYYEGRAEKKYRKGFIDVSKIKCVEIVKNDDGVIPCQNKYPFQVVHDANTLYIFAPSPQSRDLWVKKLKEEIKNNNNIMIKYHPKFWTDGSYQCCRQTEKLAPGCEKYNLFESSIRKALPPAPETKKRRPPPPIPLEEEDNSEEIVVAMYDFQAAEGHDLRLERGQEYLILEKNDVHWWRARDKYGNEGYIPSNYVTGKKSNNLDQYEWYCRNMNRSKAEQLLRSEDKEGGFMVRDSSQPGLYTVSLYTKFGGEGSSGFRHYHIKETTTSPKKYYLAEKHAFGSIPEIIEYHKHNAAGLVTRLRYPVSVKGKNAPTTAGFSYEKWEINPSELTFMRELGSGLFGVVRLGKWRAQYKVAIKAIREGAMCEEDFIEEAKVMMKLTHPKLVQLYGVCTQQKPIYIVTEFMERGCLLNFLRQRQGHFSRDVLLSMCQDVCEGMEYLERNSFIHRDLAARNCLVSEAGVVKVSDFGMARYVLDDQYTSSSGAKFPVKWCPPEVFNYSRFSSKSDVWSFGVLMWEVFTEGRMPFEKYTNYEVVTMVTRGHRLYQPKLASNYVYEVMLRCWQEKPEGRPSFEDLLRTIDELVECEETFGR
The experiment in a line: Kinase activity assay, TEC.

In a further data set the target is Kit (Homo sapiens, UniProt P10721). The experiment in a line: Kinase activity assay, Kit.
Another data set addresses PI3Kα (Homo sapiens, UniProt P42336). The experiment in a line: Kinase activity assay, PI3Kα.
The target of another data set is Btk (Homo sapiens, UniProt Q06187). In words: Kinase activity assay, Btk.
Another data set addresses MAP4K4 (Homo sapiens, UniProt O95819). In words: Kinase activity assay, MAP4K4.
The mark [2] stands for this setting: Table 5B, forms of P-1021, dog, dose 150 mg/dog.

Chain of Btk (Q06187 whole entry): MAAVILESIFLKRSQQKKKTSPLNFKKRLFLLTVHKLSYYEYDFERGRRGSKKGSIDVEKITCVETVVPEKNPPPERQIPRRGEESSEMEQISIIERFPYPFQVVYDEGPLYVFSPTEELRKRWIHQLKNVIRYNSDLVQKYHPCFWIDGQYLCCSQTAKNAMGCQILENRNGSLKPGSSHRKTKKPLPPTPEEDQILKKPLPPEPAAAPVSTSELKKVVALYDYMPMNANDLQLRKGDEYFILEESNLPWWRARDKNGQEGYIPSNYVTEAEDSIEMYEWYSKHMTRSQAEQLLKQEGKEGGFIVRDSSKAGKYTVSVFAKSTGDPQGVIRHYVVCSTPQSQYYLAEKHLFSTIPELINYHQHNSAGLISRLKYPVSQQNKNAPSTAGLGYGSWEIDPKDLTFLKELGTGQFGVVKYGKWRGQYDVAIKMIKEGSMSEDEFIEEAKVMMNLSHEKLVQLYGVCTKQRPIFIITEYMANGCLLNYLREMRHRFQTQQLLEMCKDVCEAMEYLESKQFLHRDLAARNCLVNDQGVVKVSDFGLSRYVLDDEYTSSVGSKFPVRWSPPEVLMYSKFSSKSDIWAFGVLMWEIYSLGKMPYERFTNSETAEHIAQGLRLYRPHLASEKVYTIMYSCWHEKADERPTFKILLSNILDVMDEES
Chain of B-Raf V600E (P15056 whole entry V600E): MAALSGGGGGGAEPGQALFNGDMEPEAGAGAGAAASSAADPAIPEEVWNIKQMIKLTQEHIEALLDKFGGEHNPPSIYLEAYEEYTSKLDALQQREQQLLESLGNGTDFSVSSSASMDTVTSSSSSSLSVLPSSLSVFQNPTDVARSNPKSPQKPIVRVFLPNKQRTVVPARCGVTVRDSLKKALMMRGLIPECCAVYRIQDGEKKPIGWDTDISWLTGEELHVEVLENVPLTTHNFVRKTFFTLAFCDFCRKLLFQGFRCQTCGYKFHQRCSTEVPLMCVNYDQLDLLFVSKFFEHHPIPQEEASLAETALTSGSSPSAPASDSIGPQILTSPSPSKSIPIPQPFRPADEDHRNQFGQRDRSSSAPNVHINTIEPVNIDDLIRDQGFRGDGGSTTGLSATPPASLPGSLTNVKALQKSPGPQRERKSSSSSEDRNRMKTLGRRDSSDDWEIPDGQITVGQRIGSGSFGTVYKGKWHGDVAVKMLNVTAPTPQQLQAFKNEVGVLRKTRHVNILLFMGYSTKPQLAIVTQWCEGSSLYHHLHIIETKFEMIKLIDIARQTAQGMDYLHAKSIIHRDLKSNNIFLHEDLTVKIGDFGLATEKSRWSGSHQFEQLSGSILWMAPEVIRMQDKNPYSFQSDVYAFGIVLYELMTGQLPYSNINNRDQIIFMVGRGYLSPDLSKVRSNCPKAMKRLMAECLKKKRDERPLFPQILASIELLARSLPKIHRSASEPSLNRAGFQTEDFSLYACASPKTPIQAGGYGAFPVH
Chain of PI3Kα (P42336 whole entry): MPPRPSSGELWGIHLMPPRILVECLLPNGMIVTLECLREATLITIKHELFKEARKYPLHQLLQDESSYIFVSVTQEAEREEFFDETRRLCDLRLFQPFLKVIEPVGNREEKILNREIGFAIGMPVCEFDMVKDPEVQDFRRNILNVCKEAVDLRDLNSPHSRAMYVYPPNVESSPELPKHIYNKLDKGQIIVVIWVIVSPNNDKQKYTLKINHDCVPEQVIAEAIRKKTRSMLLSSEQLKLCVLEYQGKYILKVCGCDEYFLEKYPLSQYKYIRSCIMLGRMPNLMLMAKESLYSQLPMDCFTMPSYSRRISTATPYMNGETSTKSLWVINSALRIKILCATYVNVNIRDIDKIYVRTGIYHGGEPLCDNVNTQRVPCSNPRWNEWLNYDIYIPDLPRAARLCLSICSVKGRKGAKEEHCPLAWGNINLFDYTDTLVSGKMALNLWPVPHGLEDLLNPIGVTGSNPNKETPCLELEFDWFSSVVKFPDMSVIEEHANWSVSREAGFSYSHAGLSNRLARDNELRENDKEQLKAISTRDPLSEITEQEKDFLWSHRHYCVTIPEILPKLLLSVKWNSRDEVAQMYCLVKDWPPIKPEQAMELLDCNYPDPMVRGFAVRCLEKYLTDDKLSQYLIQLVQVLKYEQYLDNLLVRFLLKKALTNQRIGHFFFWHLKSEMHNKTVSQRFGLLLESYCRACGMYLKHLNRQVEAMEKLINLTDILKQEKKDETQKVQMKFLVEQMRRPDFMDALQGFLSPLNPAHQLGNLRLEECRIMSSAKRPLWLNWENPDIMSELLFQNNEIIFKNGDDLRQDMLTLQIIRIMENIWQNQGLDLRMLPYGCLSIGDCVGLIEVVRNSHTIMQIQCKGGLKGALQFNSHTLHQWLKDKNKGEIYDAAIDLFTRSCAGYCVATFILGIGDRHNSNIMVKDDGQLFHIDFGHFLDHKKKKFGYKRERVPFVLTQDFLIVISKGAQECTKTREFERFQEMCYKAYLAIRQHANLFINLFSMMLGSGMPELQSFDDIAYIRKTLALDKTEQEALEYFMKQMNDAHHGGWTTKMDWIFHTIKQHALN
Chain of PI3Kα (P27986 whole entry partner): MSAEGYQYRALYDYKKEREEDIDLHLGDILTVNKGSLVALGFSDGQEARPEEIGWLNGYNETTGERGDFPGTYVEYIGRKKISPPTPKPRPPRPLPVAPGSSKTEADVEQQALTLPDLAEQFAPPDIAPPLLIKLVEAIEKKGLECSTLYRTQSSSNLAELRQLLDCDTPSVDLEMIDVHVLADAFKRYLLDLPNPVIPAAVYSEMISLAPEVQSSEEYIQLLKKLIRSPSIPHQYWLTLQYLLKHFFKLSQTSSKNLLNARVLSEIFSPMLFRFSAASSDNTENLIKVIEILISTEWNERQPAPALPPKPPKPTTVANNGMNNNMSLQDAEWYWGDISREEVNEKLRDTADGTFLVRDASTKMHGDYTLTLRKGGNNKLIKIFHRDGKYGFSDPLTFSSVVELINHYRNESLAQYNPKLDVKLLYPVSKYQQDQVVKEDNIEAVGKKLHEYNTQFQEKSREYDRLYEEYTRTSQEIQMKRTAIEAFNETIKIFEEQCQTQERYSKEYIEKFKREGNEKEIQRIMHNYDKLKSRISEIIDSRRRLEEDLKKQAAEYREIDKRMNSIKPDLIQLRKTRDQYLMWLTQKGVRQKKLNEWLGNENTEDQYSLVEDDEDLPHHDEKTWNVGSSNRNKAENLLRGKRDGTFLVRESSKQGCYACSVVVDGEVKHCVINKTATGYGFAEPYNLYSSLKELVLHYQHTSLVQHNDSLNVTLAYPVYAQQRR
Chain of Src (P12931 whole entry): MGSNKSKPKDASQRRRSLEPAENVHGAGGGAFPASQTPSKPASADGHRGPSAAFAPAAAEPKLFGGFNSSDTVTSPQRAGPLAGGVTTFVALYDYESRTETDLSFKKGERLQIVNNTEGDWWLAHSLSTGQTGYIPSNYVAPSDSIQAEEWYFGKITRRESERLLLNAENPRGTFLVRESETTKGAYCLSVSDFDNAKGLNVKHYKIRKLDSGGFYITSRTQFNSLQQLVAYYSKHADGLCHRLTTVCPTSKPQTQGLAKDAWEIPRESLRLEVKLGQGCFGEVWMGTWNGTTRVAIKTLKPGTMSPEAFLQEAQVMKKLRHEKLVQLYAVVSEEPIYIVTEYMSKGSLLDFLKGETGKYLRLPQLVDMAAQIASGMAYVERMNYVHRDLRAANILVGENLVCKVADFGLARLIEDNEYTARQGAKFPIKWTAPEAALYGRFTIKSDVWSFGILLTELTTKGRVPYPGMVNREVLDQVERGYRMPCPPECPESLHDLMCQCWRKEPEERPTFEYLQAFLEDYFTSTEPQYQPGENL
Chain of Fms (P07333 20-972): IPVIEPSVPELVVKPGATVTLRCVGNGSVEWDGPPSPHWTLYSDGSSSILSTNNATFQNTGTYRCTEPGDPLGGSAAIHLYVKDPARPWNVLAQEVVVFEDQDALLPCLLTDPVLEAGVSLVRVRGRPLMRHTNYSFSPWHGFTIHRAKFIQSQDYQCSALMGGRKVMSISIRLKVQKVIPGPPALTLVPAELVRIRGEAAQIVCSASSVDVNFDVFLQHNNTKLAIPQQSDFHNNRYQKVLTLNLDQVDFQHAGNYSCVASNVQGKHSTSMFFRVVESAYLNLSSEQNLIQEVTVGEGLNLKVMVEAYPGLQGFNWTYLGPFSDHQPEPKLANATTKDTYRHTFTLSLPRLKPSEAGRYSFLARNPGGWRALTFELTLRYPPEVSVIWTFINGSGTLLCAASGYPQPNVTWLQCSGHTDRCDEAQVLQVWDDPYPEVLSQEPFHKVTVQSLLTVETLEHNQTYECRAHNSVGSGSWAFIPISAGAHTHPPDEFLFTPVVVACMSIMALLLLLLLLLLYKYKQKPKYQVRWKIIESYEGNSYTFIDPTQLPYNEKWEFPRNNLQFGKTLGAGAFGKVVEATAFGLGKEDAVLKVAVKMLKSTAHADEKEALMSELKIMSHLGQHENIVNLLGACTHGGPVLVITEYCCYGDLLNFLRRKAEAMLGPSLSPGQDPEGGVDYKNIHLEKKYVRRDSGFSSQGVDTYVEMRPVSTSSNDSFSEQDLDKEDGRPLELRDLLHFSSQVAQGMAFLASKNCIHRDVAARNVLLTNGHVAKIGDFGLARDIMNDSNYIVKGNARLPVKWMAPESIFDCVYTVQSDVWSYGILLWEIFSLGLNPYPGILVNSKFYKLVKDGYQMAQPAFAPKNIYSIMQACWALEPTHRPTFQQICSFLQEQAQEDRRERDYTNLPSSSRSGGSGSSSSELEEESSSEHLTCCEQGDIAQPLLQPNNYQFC
Chain of B-Raf (P15056 whole entry): as the sequence (P15056 whole entry V600E) above, with E600V counted along it

As to `N#Cc1cnc2[nH]cc(C(=O)c3c(F)ccc(NS(=O)(=O)c4ccc(C(F)(F)F)cc4)c3F)c2c1` [P-1092 arginine complex, N-[3-(5-cyano-1H-pyrrolo[2,3-b]pyridine-3-carbonyl)-2,4-difluoro-phenyl]-4-trifluoromethyl-benzenesulfonamide], in data set [1] (Table 9B, dog, dose 200 mg/dog), the “AUC∞/dose” value is on record as 11,720 (ng*hr/mL)/(mg/kg) and the Cmax/dose is listed as 550 (ng/mL)/(mg/kg). Moreover, in data set [1] (Table 9B, dog, dose 400 mg/dog), the “AUC∞/dose” value was 12,580 (ng*hr/mL)/(mg/kg) and the Cmax/dose was 617.5 (ng/mL)/(mg/kg).

The term IC50 denotes the concentration needed to halve the response being measured. In the case of `COc1ncc(-c2cnc3[nH]cc(C(=O)c4c(F)ccc(NS(=O)(=O)CC(C)C)c4F)c3c2)cn1` [P-2322, 2-Methyl-propane-1-sulfonic acid {2,4-difluoro-3-[5-(2-methoxy-pyrimidin-5-yl)-1H-pyrrolo[2,3-b]pyridine-3-carbonyl]-phenyl}-amide], the IC50 at Fms, on B-Raf V600E, on Kdr, against Src, at B-Raf and against C-Raf was no more than 10 µM throughout. Moreover, the IC50 at TEC, on Kit, at PI3Kα and at Btk was no more than 10 µM in each case.

On to `COc1ncc(-c2cnc3[nH]cc(C(=O)c4c(F)ccc(NS(=O)(=O)c5cc(F)ccc5F)c4F)c3c2)cn1` [P-2042, N-{2,4-Difluoro-3-[5-(2-methoxy-pyrimidin-5-yl)-1H-pyrrolo[2,3-b]pyridine-3-carbonyl]-phenyl}-2,5-difluoro-benzenesulfonamide], for which the half-inhibitory concentration (IC50) against Fms, at B-Raf V600E, at Kdr, at Src, on B-Raf and on C-Raf was no more than 10 µM each time. The IC50 against TEC, against Kit, at PI3Kα and on Btk was no more than 10 µM in each case.

Regarding `O=C(c1c(F)ccc(NS(=O)(=O)c2ccc(C(F)(F)F)cc2)c1F)c1c[nH]c2ncc(Cl)cc12` [P-1021, N-[3-(5-chloro-1H-pyrrolo[2,3-b]pyridine-3-carbonyl)-2,4-difluoro-phenyl]-4-trifluoromethyl-benzenesulfonamide], the “Cmax and AUC / exposure, comparison in words” value in [1] (dog PK studies, arginine complex) was “favorable Cmax and AUC compared to free base and other formulations”.

Take `O=C(c1c(F)ccc(NS(=O)(=O)c2ccc(C(F)(F)F)cc2)c1F)c1c[nH]c2ncc(Cl)cc12` [Mesylate, N-[3-(5-chloro-1H-pyrrolo[2,3-b]pyridine-3-carbonyl)-2,4-difluoro-phenyl]-4-trifluoromethyl-benzenesulfonamide]: in data set [1] (setting [2]), the “AUC∞/dose” value is 2,849 (ng*hr/mL)/(mg/kg) and the Cmax/dose was 116 (ng/mL)/(mg/kg).

As to `CS(=O)(=O)Nc1cccc(-c2cnc3[nH]cc(C(=O)c4cc(NS(=O)(=O)c5cccnc5)ccc4F)c3c2)c1` [P-2139, Pyridine-3-sulfonic acid {4-fluoro-3-[5-(3-methanesulfonylamino-phenyl)-1H-pyrrolo[2,3-b]pyridine-3-carbonyl]-phenyl}-amide], the IC50 at Fms, on B-Raf V600E, on Kdr, on Src, at MAP4K4 and on B-Raf was no more than 10 µM in each case. In addition, the IC50 against C-Raf, at TEC, against Kit, at PI3Kα and against Btk was no more than 10 µM each time.

On to `COc1ncc(-c2cnc3[nH]cc(C(=O)c4c(F)ccc(NS(=O)(=O)c5ccc(F)cc5F)c4F)c3c2)cn1` [P-2044, N-{2,4-Difluoro-3-[5-(2-methoxy-pyrimidin-5-yl)-1H-pyrrolo[2,3-b]pyridine-3-carbonyl]-phenyl}-2,4-difluoro-benzenesulfonamide], for which the IC50 against Fms, on B-Raf V600E, on Kdr, on Src, on B-Raf and against C-Raf was no more than 10 µM throughout. The IC50 against TEC, on Kit, at PI3Kα and at Btk was no more than 10 µM throughout.

On to `O=C(c1c(F)ccc(NS(=O)(=O)c2ccc(C(F)(F)F)cc2)c1F)c1c[nH]c2ncc(Cl)cc12` [Amorphous free base, N-[3-(5-chloro-1H-pyrrolo[2,3-b]pyridine-3-carbonyl)-2,4-difluoro-phenyl]-4-trifluoromethyl-benzenesulfonamide], for which, in [1] (setting [2]), the “AUC∞/dose” value was 482 (ng*hr/mL)/(mg/kg) and the Cmax/dose was 33 (ng/mL)/(mg/kg).

`CS(=O)(=O)Nc1cccc(-c2cnc3[nH]cc(C(=O)c4cccc(NS(=O)(=O)c5cccnc5)c4)c3c2)c1` [P-2145, Pyridine-3-sulfonic acid {3-[5-(3-methanesulfonylamino-phenyl)-1H-pyrrolo[2,3-b]pyridine-3-carbonyl]-phenyl}-amide]: the IC50 at Fms, against Kdr, on Src, on MAP4K4, at B-Raf and against TEC was no more than 10 µM in each case. Also, the IC50 against Kit, against PI3Kα and at Btk was no more than 10 µM throughout.
